In patent US10149839B2, “Chemical compounds” (AstraZeneca AB, priority 2016, dated 2018):
Values after ≈ are worked out from the molar mass of the structure shown.

Tests used:
[1] = Log D (shake flask, 1-octanol/aqueous buffer); settings: pH 7.4, 1-octanol/aqueous buffer
[2] = Thermodynamic solubility (shake flask); assay type: physicochemical; settings: aqueous phosphate buffer pH 7.4, 24 hours
[3] = Human plasma protein binding (equilibrium dialysis); assay type: in vitro ADME; settings: dialysis 18 hours
[4] = molecular target: T1, Estrogen Receptor (ERα) in MCF-7 cells (Homo sapiens (Human), UniProt P03372); experiment: MCF-7 ER down-regulation assay (immuno-fluorescence); assay type: cell-based; settings: for IC50: 18-22 hours incubation; for % downregulation: shown in brackets where not >90%
[5] = Human hepatocyte assay (metabolic stability); assay type: in vitro ADME; settings: cryopreserved pooled human hepatocytes (LiverPool 10 Donor), in vitro intrinsic clearance
physchem = settings: 1-octanol/aqueous buffer, pH 7.4
[6] = molecular target: estrogen receptor (ERα) in CAMA-1 cells (Homo sapiens (Human), UniProt P03372); experiment: Western blotting assay, CAMA-1 cells; assay type: cell-based; settings: compound 100 nM, 48 h, normalised to 100 nM fulvestrant (100%)
[7] = molecular target: T1, Estrogen Receptor (ERα) in MCF-7 cells; experiment: Western blotting assay, MCF-7 cells; assay type: cell-based; settings: compound 100 nM, 48 h, normalised to 100 nM fulvestrant (100%)
[8] = aqueous phosphate buffer, 25 °C, pH 7.4, aqueous buffer, thermodynamic from solid

Chain of estrogen receptor (ERα) in CAMA-1 cells (P03372 whole entry): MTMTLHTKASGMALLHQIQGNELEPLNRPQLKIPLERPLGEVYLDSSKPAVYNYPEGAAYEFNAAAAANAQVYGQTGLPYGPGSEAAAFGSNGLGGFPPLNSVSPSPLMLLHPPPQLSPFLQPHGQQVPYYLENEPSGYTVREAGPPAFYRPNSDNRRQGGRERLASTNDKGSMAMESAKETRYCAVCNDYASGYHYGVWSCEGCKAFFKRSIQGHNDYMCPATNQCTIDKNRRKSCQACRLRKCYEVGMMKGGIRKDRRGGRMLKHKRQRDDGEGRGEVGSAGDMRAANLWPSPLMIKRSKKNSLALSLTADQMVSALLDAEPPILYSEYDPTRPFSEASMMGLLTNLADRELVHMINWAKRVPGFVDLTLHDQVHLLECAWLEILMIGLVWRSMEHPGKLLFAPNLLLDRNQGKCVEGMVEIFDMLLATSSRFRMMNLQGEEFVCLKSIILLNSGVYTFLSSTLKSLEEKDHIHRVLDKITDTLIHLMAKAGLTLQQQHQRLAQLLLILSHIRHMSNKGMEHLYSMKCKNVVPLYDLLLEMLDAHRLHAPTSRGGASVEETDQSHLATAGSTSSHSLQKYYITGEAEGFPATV
T1 sequence (P03372 whole entry): as above

LogD pH 7.4 [1] | solubility at 24 h ([2]; 25° C.) [µM] | Human plasma protein binding (% free) [3] [% free] | IC50 [4] [nM] | % downregulation [4] | hepatocyte CLint at 1 µM [5] [µL/min/1e6 cells] | logD (physchem) | solubility at 24 h [2, 8] [µM] | CAMA1 Western % ER deg vs Fv [6] [%] | MCF7 Western % ER deg vs Fv [7] [%] | Structure (SMILES)
3.1 | 149 (≈ 73.8 µg/mL) | 1.8 | – | – | – | – | – | – | – | C[C@@H]1Cc2c([nH]c3ccccc23)[C@@H](c2c(F)cc(OCCNCCCF)cc2F)N1CC(F)CF (single isomer, unassigned) [Example 16]
2.7 | 639 (≈ 324 µg/mL) | 2.4 | 0.65 | (85%) | – | – | – | – | – | C[C@@H]1Cc2c([nH]c3ccccc23)[C@@H](c2c(F)cc(OCCNCCCF)cc2F)N1CC(C)(F)CO (single isomer, unassigned) [Example 18]
3.2 | 65 (≈ 29.9 µg/mL) | 2.7 | 0.38 | – | – | – | – | – | – | C[C@@H]1Cc2c([nH]c3ccccc23)[C@@H](c2ccc(OCCNCCCF)cc2)N1C[C@H](F)CF (single isomer, unassigned) [Example 26]
3.8 | 53 (≈ 27.6 µg/mL) | 0.41 | – | – | – | – | – | – | – | COCC(C)(F)CN1[C@H](c2c(F)cc(OCCNCCCF)cc2F)c2[nH]c3ccccc3c2C[C@H]1C (single isomer, unassigned) [Example 51]
>4.1 | 14 (≈ 7.3 µg/mL) | 0.47 | 0.24 | (79%) | – | – | – | – | – | C[C@@H]1Cc2c([nH]c3ccccc23)[C@@H](c2c(F)cc(OCC(CO)NCCCF)cc2F)N1CC(C)(C)F (single isomer, unassigned) [Example 52]
>4.2 | 23 (≈ 12 µg/mL) | 0.55 | 0.14 | – | – | – | – | – | – | C[C@@H]1Cc2c([nH]c3ccccc23)[C@@H](c2c(F)cc(OCC(CO)NCCCF)cc2F)N1CC(C)(C)F (single isomer, unassigned) [Example 53]
– | – | 1.4 | 0.94 | – | < 1 | 4.6 | 34 (≈ 15.5 µg/mL) | – | – | CC(C)CN1[C@H](c2ccc(OCCNCCC(F)F)cc2)c2[nH]c3ccccc3c2C[C@H]1C [Example 1, 3,3-difluoro-N-(2-(4-((1R,3R)-2-isobutyl-3-methyl-2,3,4,9-tetrahydro-1H-pyrido[3,4-b]indol-1-yl)phenoxy)ethyl)propan-1-amine]
– | – | 5.0 | 0.24 | – | – | 2.5 | 840 (≈ 419 µg/mL) | 81 | 90 | COc1cc(NCCNCCCF)ccc1[C@@H]1c2[nH]c3ccccc3c2C[C@@H](C)N1CC1(F)COC1 [Example 47, N1-(4-((1R,3R)-2-((3-fluorooxetan-3-yl)methyl)-3-methyl-2,3,4,9-tetrahydro-1H-pyrido[3,4-b]indol-1-yl)-3-methoxyphenyl)-N2-(3-fluoropropyl)ethane-1,2-diamine]
– | – | 12 | 0.21 | – | – | 2.2 | 849 (≈ 430 µg/mL) | 87 | 73 | COc1cc(OCCNCCCF)ncc1[C@@H]1c2[nH]c3ccccc3c2C[C@@H](C)N1CC(F)(F)CO [Example 64, 2,2-difluoro-3-((1R,3R)-1-(6-(2-((3-fluoropropyl)amino)ethoxy)-4-methoxypyridin-3-yl)-3-methyl-1,3,4,9-tetrahydro-2H-pyrido[3,4-b]indol-2-yl)propan-1-ol]
– | – | 1.0 | 1.2 | – | – | 3.4 | 411 (≈ 196 µg/mL) | 60 | 31 | COc1nc(OCCNCCCF)ccc1[C@@H]1c2[nH]c3ccccc3c2C[C@@H](C)N1CC(F)F [Example 75, N-(2-((5-((1R,3R)-2-(2,2-difluoroethyl)-3-methyl-2,3,4,9-tetrahydro-1H-pyrido[3,4-b]indol-1-yl)-6-methoxypyridin-2-yl)oxy)ethyl)-3-fluoropropan-1-amine]
